According to article PMC2710007, “Anchoring Secreted Proteins in Endoplasmic Reticulum by Plant Oleosin: The Example of Vitamin B12 Cellular Sequestration by Transcobalamin” (PLoS ONE, 2009):

Target: T1, transcobalamin-oleosin (TC-O) chimera (Homo sapiens, UniProt P20062)
T1 construct: gene TCN2; single fusion: human TC without N-terminal signal peptide and stop codon, at the N-terminal side of full-length peanut oleosin (ER anchor; printed oleosin primer encodes MATATDR...); pAcSG2 baculovirus, Sf9 cells; membrane fraction, not purified; with Oleosin (peanut, 17 kDa)
T1 sequence (P20062 19-427): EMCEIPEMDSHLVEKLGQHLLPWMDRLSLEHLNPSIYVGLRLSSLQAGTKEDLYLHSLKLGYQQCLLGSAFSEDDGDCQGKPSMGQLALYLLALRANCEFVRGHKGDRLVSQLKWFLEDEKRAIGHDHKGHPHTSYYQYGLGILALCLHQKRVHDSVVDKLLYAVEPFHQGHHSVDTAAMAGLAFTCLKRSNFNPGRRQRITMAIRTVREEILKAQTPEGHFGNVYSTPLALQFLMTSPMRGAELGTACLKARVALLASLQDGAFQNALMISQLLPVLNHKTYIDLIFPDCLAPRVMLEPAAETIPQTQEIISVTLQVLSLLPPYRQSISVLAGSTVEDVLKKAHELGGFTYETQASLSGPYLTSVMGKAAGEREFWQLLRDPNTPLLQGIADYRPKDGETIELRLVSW
Test: radioligand saturation binding, Scatchard plot
Type: biochemical
Conditions: membrane fraction of lysed Sf9 cells; 57Co labelled compound; TBS, 4 °C, 20 min; printed as Ka but in a concentration unit (that of a dissociation constant)

Ka: ~ 0.02 pmol/L
Substance: [57Co]-labeled vitamin B12
